From patent US5426103A, “Certain macrocyclic lactam derivatives” (Ciba-Geigy Corporation, priority 1993, dated 1995)

How the values were obtained:
[1] = target: T1, neutral endopeptidase (NEP) (Rattus norvegicus, UniProt P07861); assay: inhibition of neutral endopeptidase (NEP), substrate not stated with the result; format: biochemical; details: for relative NEP inhibiting activity of isomers: compared with the other isomer; for IC50: substrate (GAAP or ANF) not stated
T1 sequence (P07861 1-750): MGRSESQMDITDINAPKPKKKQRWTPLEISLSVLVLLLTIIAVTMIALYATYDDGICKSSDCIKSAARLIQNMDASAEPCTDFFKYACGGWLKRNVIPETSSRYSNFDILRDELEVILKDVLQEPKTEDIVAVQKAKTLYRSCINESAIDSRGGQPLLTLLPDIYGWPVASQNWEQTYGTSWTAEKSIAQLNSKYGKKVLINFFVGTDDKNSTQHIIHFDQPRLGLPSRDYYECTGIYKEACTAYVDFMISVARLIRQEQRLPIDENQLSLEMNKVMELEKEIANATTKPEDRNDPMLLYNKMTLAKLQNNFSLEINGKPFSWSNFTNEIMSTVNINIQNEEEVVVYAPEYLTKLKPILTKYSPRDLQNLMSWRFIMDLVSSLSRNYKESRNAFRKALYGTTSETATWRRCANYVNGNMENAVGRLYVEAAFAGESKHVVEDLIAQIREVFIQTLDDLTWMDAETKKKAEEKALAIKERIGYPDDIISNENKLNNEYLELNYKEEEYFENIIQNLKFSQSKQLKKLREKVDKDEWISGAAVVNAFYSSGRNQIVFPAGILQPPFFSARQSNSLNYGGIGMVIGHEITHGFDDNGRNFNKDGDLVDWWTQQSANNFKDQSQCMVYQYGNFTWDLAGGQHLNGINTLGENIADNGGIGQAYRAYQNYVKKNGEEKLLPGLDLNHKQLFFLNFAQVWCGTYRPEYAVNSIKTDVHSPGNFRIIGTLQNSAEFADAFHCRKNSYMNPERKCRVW
Procedure: The in vitro inhibition of neutral endopeptidase (NEP) 3.4.24.11 can be determined as follows:
Neutral endopeptidase 3.4.24.11 activity is determined by the hydrolysis of the substrate glutaryl-Ala-Ala-Phe-2-naphthylamide (GAAP) using a modified procedure of Orlowski and Wilk (1981). The incubation mixture (total volume 125 μl) contains 4.2 μg of protein (rat kidney cortex membranes prepared by method of Maeda et al, 1983), 50 mM tris buffer, pH 7.4 at 25° C., 500 μM substrate (final concentration), and leucine aminopeptidase M (2.5 μg). The mixture is incubated for 10 minutes at 25° C. and 100 μl of fast garnet (250 μg fast garnet/ml of 10% Tween 20 in 1M sodium acetate, pH 4.2) is added. Enzyme activity is measured spectrophotometrically at 540 nm. One unit of NEP 24.11 activity is defined as 1 nmol of 2-naphthylamine released per minute at 25° C. at pH 7.4. IC50 values for inhibition of the enzyme are determined, i.e. the concentration of test compound required for 50% inhibition of the release of 2-naphthylamine.
Neutral endopeptidase activity is also determined using ANF as a substrate. A trial natriuretic factor degrading activity is determined by measuring the disappearance of rat-ANF (r-ANF) using a 3 minute reverse phase-HPLC separation. An aliquot of the enzyme in 50 mM Tris HCl buffer, pH 7.4, is preincubated at 37° C. for 2 minutes and the reaction is initiated by the addition of 4 nmol of r-ANF in a total volume of 50 μl. The reaction is terminated after 4 minutes with the addition of 30 μl of 0.27% trifluoroacetic acid (TFA). Forty microliters of the mixture is injected into a reverse phase-HPLC and analyzed using a C4 cartridge in a 3 minute, isocratic separation. Twenty-three percent of buffer B (0.1% TFA in 80% acetonitrile) is used. Buffer A is 0.1% TFA in water. One unit of activity is defined as the hydrolysis of 1 nmol of r-ANF per minute at 37° C. at pH 7.4. IC50 values for inhibition of the enzyme are determined, i.e. the concentration of test compound required for 50% inhibition of the hydrolysis of ANF.
The test compound is dissolved in dimethyl sulfoxide or 0.25M sodium bicarbonate solution, and the solution is diluted with pH 7.4 buffer to the desired concentration.
In vitro testing is most appropriate for the free mercapto carboxylic acids of the invention.

[2] = target: T2, Neutral endopeptidase 3.4.24.11 (Rattus norvegicus, UniProt P07861); assay: in vitro inhibition of neutral endopeptidase (NEP) 3.4.24.11, GAAP substrate; format: biochemical; details: pH 7.4, 25° C.
T2 construct: rat kidney cortex membranes prepared by method of Maeda et al, 1983; from tissue; host or cells: rat kidney cortex membranes
T2 sequence (P07861 1-750): T1 sequence (P07861 1-750)

[3] = target: T3, angiotensin-converting enzyme (ACE) (Oryctolagus cuniculus, UniProt P12822); assay: in vitro inhibition of the angiotensin-converting enzyme (ACE), hippuryl-histidyl-leucine substrate; format: biochemical, rabbit; details: 37° C., 30 minutes
T3 construct: angiotensin-converting enzyme preparation (from lungs of adult male rabbits); from tissue; host or cells: lungs of adult male rabbits
T3 sequence (P12822 34-1310): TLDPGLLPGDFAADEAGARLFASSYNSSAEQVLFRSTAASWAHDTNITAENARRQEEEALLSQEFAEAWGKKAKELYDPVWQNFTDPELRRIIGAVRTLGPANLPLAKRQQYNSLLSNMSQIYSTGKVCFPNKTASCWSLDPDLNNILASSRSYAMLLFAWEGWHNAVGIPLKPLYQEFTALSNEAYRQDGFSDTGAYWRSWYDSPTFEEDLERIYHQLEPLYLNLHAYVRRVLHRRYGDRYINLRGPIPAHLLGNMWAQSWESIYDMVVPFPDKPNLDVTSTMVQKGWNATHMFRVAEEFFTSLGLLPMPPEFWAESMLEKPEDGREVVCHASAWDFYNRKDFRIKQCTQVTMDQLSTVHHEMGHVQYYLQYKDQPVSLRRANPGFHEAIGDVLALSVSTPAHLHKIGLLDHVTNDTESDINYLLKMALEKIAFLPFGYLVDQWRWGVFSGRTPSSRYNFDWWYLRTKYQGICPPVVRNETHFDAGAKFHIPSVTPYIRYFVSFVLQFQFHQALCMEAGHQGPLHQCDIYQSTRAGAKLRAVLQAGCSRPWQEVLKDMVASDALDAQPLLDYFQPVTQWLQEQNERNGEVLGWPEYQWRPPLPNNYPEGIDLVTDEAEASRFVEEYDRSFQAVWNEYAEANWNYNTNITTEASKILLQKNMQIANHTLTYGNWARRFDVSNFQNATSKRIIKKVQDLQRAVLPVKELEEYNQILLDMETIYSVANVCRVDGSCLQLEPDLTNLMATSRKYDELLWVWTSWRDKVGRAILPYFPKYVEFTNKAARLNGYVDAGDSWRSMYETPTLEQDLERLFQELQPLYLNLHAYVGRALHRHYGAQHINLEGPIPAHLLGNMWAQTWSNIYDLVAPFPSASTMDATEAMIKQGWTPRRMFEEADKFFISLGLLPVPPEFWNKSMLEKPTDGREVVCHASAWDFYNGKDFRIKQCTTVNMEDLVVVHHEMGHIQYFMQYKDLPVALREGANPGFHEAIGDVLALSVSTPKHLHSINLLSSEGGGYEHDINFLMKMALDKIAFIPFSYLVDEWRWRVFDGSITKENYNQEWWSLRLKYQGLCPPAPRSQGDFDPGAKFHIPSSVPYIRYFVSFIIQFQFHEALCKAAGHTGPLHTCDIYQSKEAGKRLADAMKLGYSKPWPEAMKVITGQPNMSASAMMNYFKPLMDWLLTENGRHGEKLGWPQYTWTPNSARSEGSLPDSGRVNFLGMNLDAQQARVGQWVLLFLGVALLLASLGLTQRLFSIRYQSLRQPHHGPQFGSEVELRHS
Procedure: Biophys. Acta 293, p. 451 (1973). For example, said compounds are dissolved at about 1 mM concentration in phosphate buffer. To 100 microliters of solutions of the test compound in phosphate buffer, diluted to the desired concentration, are added 100 microliters of 5 mM hippuryl-histidyl-leucine in phosphate buffer, followed by 50 microliters of the angiotensin-converting enzyme preparation (from lungs of adult male rabbits) in Tris buffer, containing potassium and magnesium chloride, as well as sucrose. Said solutions are incubated at 37° C. for 30 minutes and combined with 0.75 ml of 0.6N aqueous sodium hydroxide to stop further reaction. Then 100 microliters of a 0.2% solution of o-phthalaldehyde in methanol are added at room temperature, and 10 minutes later 100 microliters of 6N hydrochloric acid. These samples are read against water in a spectrophotometer set at 360 nm, and the optical densities thereof estimated. They are corrected for the standard curve via a conversion factor expressing nanomoles of histidyl-leucine formed during said 30 minute incubation period. The results are plotted against drug concentration to determine the IC50, i.e., the drug concentration which gives half the activity of the control sample containing no drug.

Compound | relative NEP inhibiting activity of isomers [1] | IC50 [2] [nM] | IC50 [1] [nM] | IC50 [3] [nM]
O=C1N[C@@H](C(=O)O)CCCCCC[C@H]1CS (relative stereo) [Example 2(b), 3-mercaptomethyl-2-oxo-1-azacyclodecane-10-carboxylic acid] | less active diastereoisomer |  |  | 
CC(=O)SC[C@H]1CCCCCC[C@H](C(=O)O)NC1=O (relative stereo) [Example 16, trans 3-(acetylthiomethyl)-2-oxo-1-azacyclodecane-10-carboxylic acid] | more active NEP inhibiting enantiomer |  |  | 
O=C1N[C@@H](C(=O)O)CCCCCC[C@@H]1CS (relative stereo) [trans 3-mercaptomethyl-2-oxo-1-azacyclodecane-10-carboxylic acid] | more active neutral endopeptidase (NEP) inhibiting diastereoisomer | ~3 |  | 
O=C1N[C@H](C(=O)O)CSCCCCCCCC1CS (single isomer, unassigned) | more active NEP inhibiting isomer |  | 18 | 12
COC(=O)C1CCCCCCCCCCC(CSC(C)=O)C(=O)N1 (single isomer, unassigned) [Example 24 (minor isomer), methyl 3-(acetylthiomethyl)-2-oxo-1-azacyclotetradecane-14-carboxylate] | more active NEP inhibiting isomer |  |  | 
O=C1NC(C(=O)O)CCCCCCCCCCC1CS (single isomer, unassigned) [Example 25(b), 3-mercaptomethyl-2-oxo-1-azacyclotetradecane-14-carboxylic acid] | more active NEP inhibiting isomer |  |  | 
O=C1N[C@H](C(=O)O)CSCCCCCCCCC1CS (single isomer, unassigned) [Example 35(b)] | more active NEP inhibiting isomer |  |  | 
O=C1NC(C(=O)O)CCCCCCCCCCC1CS (stereo not drawn) [3-mercaptomethyl-2oxo-1-azacyclotetradecane-14-carboxylic acid] |  |  | ~30 | ~45
